Experimental data from PubChem BioAssay (NCI).
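A five-concentration, 48-hour dose response in 96-well plates underlies each endpoint, interpolated linearly between surrounding concentrations. The concentration for 50% growth inhibition is given as GI50. TGI marks complete inhibition of growth.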

Assays:
Test in all cases: growth of human tumour cells (NCI), 48 h
SK-MEL-28 melanoma = test system: SK-MEL-28 melanoma
HCT-15 colon = test system: HCT-15 colon
K-562 leukemia = test system: K-562 leukemia
BT-549 breast = test system: BT-549 breast
MOLT-4 leukemia = test system: MOLT-4 leukemia
HS 578T breast = test system: HS 578T breast
HCC-2998 colon = test system: HCC-2998 colon
DU-145 prostate = test system: DU-145 prostate
NCI-H23 lung = test system: NCI-H23 lung
OVCAR-5 ovarian = test system: OVCAR-5 ovarian
IGROV1 ovarian = test system: IGROV1 ovarian
RPMI-8226 leukemia = test system: RPMI-8226 leukemia
MALME-3M melanoma = test system: MALME-3M melanoma
T-47D breast = test system: T-47D breast
CAKI-1 renal = test system: CAKI-1 renal
ACHN renal = test system: ACHN renal
SF-539 CNS = test system: SF-539 CNS
SN12C renal = test system: SN12C renal
COLO 205 colon = test system: COLO 205 colon
MCF7 breast = test system: MCF7 breast
EKVX NSCLC = test system: EKVX NSCLC
UACC-62 melanoma = test system: UACC-62 melanoma
SNB-19 CNS = test system: SNB-19 CNS
UACC-257 melanoma = test system: UACC-257 melanoma
OVCAR-3 ovarian = test system: OVCAR-3 ovarian
KM12 colon = test system: KM12 colon
SNB-75 CNS = test system: SNB-75 CNS
786-0 renal = test system: 786-0 renal
SF-268 CNS = test system: SF-268 CNS
NCI-H226 lung = test system: NCI-H226 lung
NCI/ADR-RES ovarian = test system: NCI/ADR-RES ovarian
A549 NSCLC = test system: A549 NSCLC
HOP-62 NSCLC = test system: HOP-62 NSCLC
SK-MEL-5 melanoma = test system: SK-MEL-5 melanoma
NCI-H522 lung = test system: NCI-H522 lung
MDA-MB-435 = test system: MDA-MB-435
UO-31 renal = test system: UO-31 renal
HCT-116 colon = test system: HCT-116 colon
RXF 393 renal = test system: RXF 393 renal
LOX IMVI melanoma = test system: LOX IMVI melanoma
TK-10 renal = test system: TK-10 renal
MDA-MB-231 breast = test system: MDA-MB-231 breast
U251 CNS = test system: U251 CNS
M14 melanoma = test system: M14 melanoma
A498 renal = test system: A498 renal
PC-3 prostate = test system: PC-3 prostate
SK-MEL-2 melanoma = test system: SK-MEL-2 melanoma
NCI-H460 lung = test system: NCI-H460 lung
OVCAR-8 ovarian = test system: OVCAR-8 ovarian
SF-295 CNS = test system: SF-295 CNS
SK-OV-3 ovarian = test system: SK-OV-3 ovarian
SW-620 colon = test system: SW-620 colon
CCRF-CEM leukemia = test system: CCRF-CEM leukemia
HT29 colon = test system: HT29 colon
OVCAR-4 ovarian = test system: OVCAR-4 ovarian

O=C(OC(CNc1cc(=O)n(Cc2ccccc2)c(=O)n1Cc1ccccc1)CN1CCCC1)c1ccccc1 (stereo not given)
GI50 (SK-MEL-28 melanoma): > 100 µM
TGI (SK-MEL-28 melanoma): > 100 µM
GI50 (HCT-15 colon): > 100 µM
TGI (HCT-15 colon): > 100 µM
GI50 (K-562 leukemia): 92.1 µM
TGI (K-562 leukemia): > 100 µM
GI50 (BT-549 breast): 0.781 µM
TGI (BT-549 breast): > 100 µM
GI50 (MOLT-4 leukemia): > 100 µM
TGI (MOLT-4 leukemia): > 100 µM
GI50 (HS 578T breast): > 100 µM
TGI (HS 578T breast): > 100 µM
GI50 (HCC-2998 colon): > 100 µM
TGI (HCC-2998 colon): > 100 µM
GI50 (DU-145 prostate): 1.9 µM
TGI (DU-145 prostate): > 100 µM
GI50 (NCI-H23 lung): > 100 µM
TGI (NCI-H23 lung): > 100 µM
GI50 (OVCAR-5 ovarian): > 100 µM
TGI (OVCAR-5 ovarian): > 100 µM
GI50 (IGROV1 ovarian): > 100 µM
TGI (IGROV1 ovarian): > 100 µM
GI50 (RPMI-8226 leukemia): 29.3 µM
TGI (RPMI-8226 leukemia): > 100 µM
GI50 (MALME-3M melanoma): > 100 µM
TGI (MALME-3M melanoma): > 100 µM
GI50 (T-47D breast): 18.9 µM
TGI (T-47D breast): > 100 µM
GI50 (CAKI-1 renal): > 100 µM
TGI (CAKI-1 renal): > 100 µM
GI50 (ACHN renal): > 100 µM
TGI (ACHN renal): > 100 µM
GI50 (SF-539 CNS): > 100 µM
TGI (SF-539 CNS): > 100 µM
GI50 (SN12C renal): > 100 µM
TGI (SN12C renal): > 100 µM
GI50 (COLO 205 colon): > 100 µM
TGI (COLO 205 colon): > 100 µM
GI50 (MCF7 breast): > 100 µM
TGI (MCF7 breast): > 100 µM
GI50 (EKVX NSCLC): > 100 µM
TGI (EKVX NSCLC): > 100 µM
GI50 (UACC-62 melanoma): 89.4 µM
TGI (UACC-62 melanoma): > 100 µM
GI50 (SNB-19 CNS): > 100 µM
TGI (SNB-19 CNS): > 100 µM
GI50 (UACC-257 melanoma): > 100 µM
TGI (UACC-257 melanoma): > 100 µM
GI50 (OVCAR-3 ovarian): > 100 µM
TGI (OVCAR-3 ovarian): > 100 µM
GI50 (KM12 colon): > 100 µM
TGI (KM12 colon): > 100 µM
GI50 (SNB-75 CNS): 16.5 µM
TGI (SNB-75 CNS): > 100 µM
GI50 (786-0 renal): > 100 µM
TGI (786-0 renal): > 100 µM
GI50 (SF-268 CNS): > 100 µM
TGI (SF-268 CNS): > 100 µM
GI50 (NCI-H226 lung): 81.8 µM
TGI (NCI-H226 lung): > 100 µM
GI50 (NCI/ADR-RES ovarian): > 100 µM
TGI (NCI/ADR-RES ovarian): > 100 µM
GI50 (A549 NSCLC): > 100 µM
TGI (A549 NSCLC): > 100 µM
GI50 (HOP-62 NSCLC): > 100 µM
TGI (HOP-62 NSCLC): > 100 µM
GI50 (SK-MEL-5 melanoma): > 100 µM
TGI (SK-MEL-5 melanoma): > 100 µM
GI50 (NCI-H522 lung): > 100 µM
TGI (NCI-H522 lung): > 100 µM
GI50 (MDA-MB-435): > 100 µM
TGI (MDA-MB-435): > 100 µM
GI50 (UO-31 renal): > 100 µM
TGI (UO-31 renal): > 100 µM
GI50 (HCT-116 colon): 56.8 µM
TGI (HCT-116 colon): > 100 µM
GI50 (RXF 393 renal): 76.1 µM
TGI (RXF 393 renal): > 100 µM
GI50 (LOX IMVI melanoma): > 100 µM
TGI (LOX IMVI melanoma): > 100 µM
GI50 (TK-10 renal): > 100 µM
TGI (TK-10 renal): > 100 µM
GI50 (MDA-MB-231 breast): 75.3 µM
TGI (MDA-MB-231 breast): > 100 µM
GI50 (U251 CNS): > 100 µM
TGI (U251 CNS): > 100 µM
GI50 (M14 melanoma): > 100 µM
TGI (M14 melanoma): > 100 µM
GI50 (A498 renal): > 100 µM
TGI (A498 renal): > 100 µM
GI50 (PC-3 prostate): > 100 µM
TGI (PC-3 prostate): > 100 µM
GI50 (SK-MEL-2 melanoma): > 100 µM
TGI (SK-MEL-2 melanoma): > 100 µM
GI50 (NCI-H460 lung): > 100 µM
TGI (NCI-H460 lung): > 100 µM
GI50 (OVCAR-8 ovarian): > 100 µM
TGI (OVCAR-8 ovarian): > 100 µM
GI50 (SF-295 CNS): > 100 µM
TGI (SF-295 CNS): > 100 µM
GI50 (SK-OV-3 ovarian): > 100 µM
TGI (SK-OV-3 ovarian): > 100 µM
GI50 (SW-620 colon): > 100 µM
TGI (SW-620 colon): > 100 µM
GI50 (CCRF-CEM leukemia): 23.7 µM
TGI (CCRF-CEM leukemia): > 100 µM
GI50 (HT29 colon): 35 µM
TGI (HT29 colon): > 100 µM
GI50 (OVCAR-4 ovarian): > 100 µM
TGI (OVCAR-4 ovarian): > 100 µM
